Test system: HBV viral production from HepAD38 cells
Assay: Activity of test compounds on viral production from HepAD38 cells (viral load by qPCR of HBV core sequence in supernatant)
Type: cell-based
Settings: Hepatitis B virus, 120 h, 5 days incubation, HBV DNA in supernatant by qPCR, top concentration 10 μM, read-out: Viral Load EC50 Activity range
Summary of the method: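 EC50 and CC50 come from four-parameter fits of supernatant viral load and CellTiter-Glo viability, respectively. Viral load was measured by core-region TaqMan qPCR against HBV DNA standards and compared with DMSO controls. Tet-free HepAD38 cells (50,000/well, 2% FBS) were exposed to compound, highest 10 μM, for 5 days at 37° C.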

Row | Structure (SMILES) | EC50
1 | CN1[C@H](C(=O)Nc2ccc(F)c(Cl)c2)C[C@H](c2cccc(F)c2)NS1(=O)=O (relative stereo) [HBV-CSU-231-ISO-I, Cis-N-(3-Chloro-4-fluorophenyl)-5-(3-fluorophenyl)-2-methyl-1,2,6-thiadiazinane-3-carboxamide 1,1-dioxide] | < 1000 nM
2 | CN1[C@@H](C(=O)Nc2ccc(F)c(Cl)c2)C[C@@H](c2ccc(-c3cnn(C)c3)cc2)NS1(=O)=O (relative stereo) [HBV-CSU-246-ISO-I, Cis-N-(3-Chloro-4-fluorophenyl)-2-methyl-5-(4-(1-methyl-1H-pyrazol-4-yl)phenyl)-1,2,6-thiadiazinane-3-carboxamide 1,1-dioxide] | > 5000 nM
3 | CN1[C@H](C(=O)Nc2ccc(F)c(Cl)c2)C[C@H](c2ncc(-c3cncs3)s2)NS1(=O)=O (relative stereo) [HBV-CSU-278-ISO-I, Cis-5-([5,5′-Bithiazol]-2-yl)-N-(3-chloro-4-fluorophenyl)-2-methyl-1,2,6-thiadiazinane-3-carboxamide 1,1-dioxide] | < 1000 nM
4 | CN1[C@@H](C(=O)Nc2ccc(F)c(Cl)c2)C[C@@H](c2cc(-c3cncn3C)cs2)NS1(=O)=O (relative stereo) [HBV-CSU-285-ISO-II, Cis-N-(3-Chloro-4-fluorophenyl)-2-methyl-5-(4-(1-methyl-1H-imidazol-5-yl)thiophen-2-yl)-1,2,6-thiadiazinane-3-carboxamide 1,1-dioxide] | < 1000 nM
5 | CN1[C@H](C(=O)Nc2ccc(F)c(Cl)c2)C[C@H](c2cc(-c3ccnn3C)cs2)NS1(=O)=O (relative stereo) [HBV-CSU-289-ISO-I, Cis-N-(3-chloro-4-fluorophenyl)-2-methyl-5-(4-(1-methyl-1H-pyrazol-5-yl)thiophen-2-yl)-1,2,6-thiadiazinane-3-carboxamide 1,1-dioxide] | < 1000 nM
6 | Cc1cc([C@H]2C[C@@H](C(=O)Nc3ccc(F)c(Cl)c3)N(C)S(=O)(=O)N2)sc1-c1cnn(C)c1 (relative stereo) [HBV-CSU-300-ISO-I, Cis-N-(3-Chloro-4-fluorophenyl)-5-(4-methyl-5-(1-methyl-1H-pyrazol-4-yl)thiophen-2-yl)-2-methyl-1,2,6-thiadiazinane-3-carboxamide 1,1-dioxide] | < 1000 nM
7 | Cc1c(-c2csc([C@@H]3C[C@H](C(=O)Nc4ccc(F)c(Cl)c4)N(C)S(=O)(=O)N3)c2)cnn1C (relative stereo) [HBV-CSU-315-ISO-II, Cis-N-(3-chloro-4-fluorophenyl)-5-(4-(1,5-dimethyl-1H-pyrazol-4-yl)thiophen-2-yl)-2-methyl-1,2,6-thiadiazinane-3-carboxamide 1,1-dioxide] | < 1000 nM
8 | Cc1nn(C)cc1-c1csc([C@@H]2C[C@H](C(=O)Nc3ccc(F)c(Cl)c3)N(C)S(=O)(=O)N2)c1 (relative stereo) [HBV-CSU-316-ISO-II, Cis-N-(3-chloro-4-fluorophenyl)-5-(4-(1,3-dimethyl-1H-pyrazol-4-yl)thiophen-2-yl)-2-methyl-1,2,6-thiadiazinane-3-carboxamide 1,1-dioxide] | < 1000 nM
9 | Cc1nn(C)c(C)c1-c1csc([C@@H]2C[C@H](C(=O)Nc3ccc(F)c(Cl)c3)N(C)S(=O)(=O)N2)c1 (relative stereo) [HBV-CSU-317-ISO-II, Cis-N-(3-chloro-4-fluorophenyl)-2-methyl-5-(4-(1,3,5-trimethyl-1H-pyrazol-4-yl)thiophen-2-yl)-1,2,6-thiadiazinane-3-carboxamide 1,1-dioxide] | < 1000 nM
10 | CN1[C@@H](C(=O)Nc2ccc(F)c(Cl)c2)C[C@@H](c2cc(-c3cnn(C(F)(F)F)c3)cs2)NS1(=O)=O (relative stereo) [HBV-CSU-325-ISO-II, Cis-N-(3-Chloro-4-fluorophenyl)-2-methyl-5-(4-(1-(trifluoromethyl)-1H-pyrazol-4-yl)thiophen-2-yl)-1,2,6-thiadiazinane-3-carboxamide 1,1-dioxide] | > 5000 nM
11 | [2H]C([2H])([2H])N1[C@@H](C(=O)Nc2ccc(F)c(Cl)c2)C[C@@H](c2ncc(-c3cn(C([2H])([2H])[2H])cn3)s2)NS1(=O)=O (relative stereo) [HBV-CSU-337-ISO-II, Cis-N-(3-Chloro-4-fluorophenyl)-2-(methyl-d3)-5-(5-(1-(methyl-d3)-1H-imidazol-4-yl)thiazol-2-yl)-1,2,6-thiadiazinane-3-carboxamide 1,1-dioxide] | 1000 to 5000 nM
12 | [2H]C([2H])([2H])N1[C@@H](C(=O)Nc2ccc(F)c(Cl)c2)C[C@@H](c2ncc(-c3cn(C)cn3)s2)NS1(=O)=O (relative stereo) [HBV-CSU-338-ISO-II, Cis-N-(3-Chloro-4-fluorophenyl)-2-(methyl-d3)-5-(5-(1-methyl-1H-imidazol-4-yl)thiazol-2-yl)-1,2,6-thiadiazinane-3-carboxamide 1,1-dioxide] | 1000 to 5000 nM
13 | CN1[C@@H](C(=O)Nc2ccc(F)c(Cl)c2)C[C@@H](c2ccc3c(c2)ncn3C)NS1(=O)=O (relative stereo) [HBV-CSU-360-ISO-II, Cis-N-(3-chloro-4-fluorophenyl)-2-methyl-5-(1-methyl-1H-benzo[d]imidazol-5-yl)-1,2,6-thiadiazinane-3-carboxamide 1,1-dioxide] | < 1000 nM
14 | [2H]C([2H])([2H])N1[C@@H](C(=O)Nc2ccc(F)c(Cl)c2)C[C@@H](c2ccc(Br)s2)NS1(=O)=O (relative stereo) [HBV-CSU-370-ISO-II, Cis-5-(5-bromothiophen-2-yl)-N-(3-chloro-4-fluorophenyl)-2-(methyl-d3)-1,2,6-thiadiazinane-3-carboxamide 1,1-dioxide] | 1000 to 5000 nM
15 | CN1[C@H](C(=O)Nc2ccc(F)c(Cl)c2)C[C@H](c2ccc(C(F)(F)F)cc2)NS1(=O)=O (stereo in doubt) [HBV-CSU-217-ISO-I, Cis-N-(3-Chloro-4-fluorophenyl)-2-methyl-5-(4-(trifluoromethyl)phenyl)-1,2,6-thiadiazinane-3-carboxamide 1,1-dioxide] | > 5000 nM
16 | CN1[C@@H](C(=O)Nc2ccc(F)c(Cl)c2)C[C@@H](c2ccc(C(F)(F)F)cc2)NS1(=O)=O (stereo in doubt) [HBV-CSU-217-ISO-II, Cis-N-(3-Chloro-4-fluorophenyl)-2-methyl-5-(4-(trifluoromethyl)phenyl)-1,2,6-thiadiazinane-3-carboxamide 1,1-dioxide] | < 1000 nM
17 | CN1[C@@H](C(=O)Nc2ccc(F)c(Cl)c2)C[C@@H](c2cc(-c3ccc(F)cn3)cs2)NS1(=O)=O (stereo in doubt) [HBV-CSU-243-ISO-I, Cis-N-(3-chloro-4-fluorophenyl)-5-(4-(5-fluoropyridin-2-yl)thiophen-2-yl)-2-methyl-1,2,6-thiadiazinane-3-carboxamide 1,1-dioxide] | > 5000 nM
18 | CN1[C@H](C(=O)Nc2ccc(F)c(Cl)c2)C[C@H](c2cc(-c3ccc(F)cn3)cs2)NS1(=O)=O (stereo in doubt) [HBV-CSU-243-ISO-II, Cis-N-(3-chloro-4-fluorophenyl)-5-(4-(5-fluoropyridin-2-yl)thiophen-2-yl)-2-methyl-1,2,6-thiadiazinane-3-carboxamide 1,1-dioxide] | < 1000 nM
19 | CN1[C@H](C(=O)Nc2ccc(F)c(Cl)c2)C[C@H](c2ncc(-c3ccn(C)n3)s2)NS1(=O)=O (stereo in doubt) [HBV-CSU-280-ISO-I, Cis-N-(3-Chloro-4-fluorophenyl)-2-methyl-5-(5-(1-methyl-1H-pyrazol-3-yl)thiazol-2-yl)-1,2,6-thiadiazinane-3-carboxamide 1,1-dioxide] | 1000 to 5000 nM
